Laboratory results: patent US10058100B2, “Hydrogen sulfide releasing compounds and their use” (THE UNIVERSITY OF EXETER, priority 2011, dated 2018)
Entries after “also recorded” stand apart in the source; their conditions may differ.

Legend:
[1] = system: peroxiredoxin 3 (Prx3); experiment: Western blot of mitochondrial peroxiredoxin 3 oxidation in THP-1 cells; type: cell-based, human
Experimental: Human THP-1 (monocytic) cells were exposed to an oxidative stress inducing agent (hydrogen peroxide; H2O2, 25 μM) in the presence or absence of the mitochondria-targeted H2S donor AP39.
In the experiment resulting in FIG. 32, the human THP-1 (monocytic) cells were exposed to 25 μM H2O2 for 4 hours in the absence or presence of different concentrations of AP39 (given in μM).
In the experiment resulting in FIG. 33, the human THP-1 (monocytic) cells were exposed to different concentrations of AP39 (given in μM) for 4 hours followed by the addition of 25 μM H2O2 for 1 minute.
In both experiments, after these time periods the levels of native mitochondrial matrix protein peroxiredoxin 3 (Prx3) (dimer, molecular weight 37 kDa) and over-oxidised Prx3 (monomer, molecular weight 25 kDa) were determined by standard western blotting procedures (M Whiteman et al (FASEB J, 2004, 18, 1395-1397) (FIGS. 32 and 33).

[2] = system: HMEC; experiment: Mitochondrial membrane potential (ΔΨm), tetramethylrhodamine methyl ester; type: cell-based, human; settings: H2O2, SIN-1 or 4-HNE, FIG. 13
Experimental: HMEC were incubated with H2S donor compounds for 5 hrs followed by the addition of oxidants SIN-1 (500 μM), H2O2 (50 μM) or […] (10 μM) for 24 hrs. After this time the mitochondria-specific potentiometric dye tetramethylrhodamine methyl ester (200 nM) was added and fluorescence was determined using a Gemini M2e microplate reader (excitation wavelength 548 nm, emission wavelength 573 nm). The method was performed in accordance with the method described by M. Whiteman et al (FASEB J, 2004, 18, 1395-1397).

[3] = system: adrenaline-precontracted rat aorta; experiment: Relaxation of adrenaline precontracted rat aortic rings; settings: AP39 1-5 μM, 200 nmol/l adrenaline, FIG. 23 A-C
Experimental: (§1) The rings of thoracic aorta (approx. 3-4-mm diameter) or mesenteric artery were prepared from male Wistar rats and were mounted for recording of isometric tension changes in pneumoxid-oxygenated (95% O2:CO2, 37° C.) Krebs-bicarbonate solution as described in Ling et al., 2008 Circulation 117 […]. The aortic ring was pre-contracted with 200 nmol/l adrenaline and the effect of AP39 was evaluated (FIG. 23).

[4] = system: anaesthetised Wistar rats; experiment: Blood pressure, heart rate and breathing rate of anaesthetised Wistar rats; type: in vivo, rat; settings: for blood pressure / breathing rate / heart rate: anaesthetised Wistar rats
Experimental: The mean arterial blood pressure (MAP) of anaesthetised Wistar rats was measured by a pressure transducer in the carotid artery. In ex vivo experiments, effects of AP39 were studied on noradrenaline precontracted rat aortic rings (see below). The single channel properties of intracellular chloride channels from rat heart were studied using the bilayer lipid membrane method (see below).
(§2) The catheter was inserted into the right jugular vein of male wistar rats or male spontaneously hypertensive (SHR) rats so as to reach the right atrium. Anesthesia (ZOLELIT, VIRBAC, 40 mg/kg to leg) and Xylazine 2%. AP39 solutions were prepared in 4 μl DMSO then mixed with 100 μl Krebs solution and immediately applied for 10 sec. (FIGS. 20, 21 and 22).
(§3) Blood pressure, heart rate and breathing rate were all measured at the same time, in accordance with Ling et al., 2008 Circulation 117 2351-2360.

[5] = system: Human brain microvascular endothelial cells (HMEC); experiment: Prevention of cell death induced by oxidants (SIN-1, H2O2, 4-HNE), Alamar Blue; type: cell-based
[6] = system: inflammasome; experiment: Inhibition of inflammasome activity once inflammasome is activated, IL-1β ELISA in THP-1 cells; type: cell-based, human; settings: LPS 24 hrs, then ATP and AP39 24 hrs, FIG. 36
Experimental: Human THP-1 cells were cultured in RPMI medium and exposed to bacterial endotoxin (lipopolysaccharide; LPS) (1 μg/ml) for 24 hrs, followed by ATP (5 mM) and AP39 for 24 hrs. After this time cell culture media was collected and inflammasome activity determined by measuring IL-1β levels in the culture media by commercial ELISA (Human IL-1 beta ELISA Ready-SET-Go, eBioscience) (FIG. 36). Data are mean+/−standard deviation (n=3).

[7] = system: chloride channels derived from rat heart sarcoplasmic reticulum; experiment: Single channel properties of chloride channels in bilayer lipid membrane; type: biochemical
Experimental: Sarcoplasmic reticulum (SR) vesicles, isolated from rat heart, were fused into bilayer lipid membrane separating the cis and trans chambers, and electrical current through the single chloride channel was measured. […] The single channel parameters: Open probability, current-voltage relationship, reversal potential, mean open and close time and single current amplitude were evaluated (FIGS. 24-28).

[8] = system: HMEC; experiment: Cell death induced by inhibitors of endogenous H2S synthesis (AOAA, PAG); type: cell-based, human; settings: FIGS. 5-7, p<0.001
Excerpt: In the data shown in FIGS. 5 to 7, ###=p<0.001 compared to the control; ***=p<0.001 compared to inhibitors.

[9] = system: mesenteric arteries; experiment: Relaxation of adrenaline precontracted rat mesenteric arteries; settings: AP39 1-5 μM, FIG. 23 D
Experimental: as §1

[10] = target: T1, CAv3.1 T-type calcium channels (Homo sapiens, UniProt O43497); experiment: T-type calcium channel CAv3.1 whole cell patch-clamp in HEK 293 cells; type: cell-based; settings: HEK293 cells, concentration and time-dependent, holding potential −100 mV, FIGS. 29-31
T1 construct: expressed in transfected cells; host or cells: HEK 293 cells, permanently transfected
Experimental: CAv3.1 calcium channels were permanently transfected in human embryonic kidney (HEK 293) cells and the calcium currents were measured by a patch-clamp method in the whole cell configuration, from a holding potential −100 mV.
The effect of four different concentrations of AP39 on the current through a Cav3.1 channel was tested (FIGS. 29-31).

[11] = system: transcription factor Nrf2; experiment: Nrf2 activation, luciferase reporter in AREc32 cells; type: cell-based, human; settings: FIG. 34
Experimental: Nrf2 activation was studied in AREc32 cells. This stable cell line is derived from MCF-7 cells transfected with a construct containing eight copies of the rat glutathione-S-transferase-A2 Antioxidant Response […] Element (ARE) and the SV40 promoter sequence upstream of a firefly luciferase reporter gene (Wang, X. J. et al., 2006, Cancer Res, 66, 10983-94). […] After 4 h the treatments were removed and the cells were treated with sulforaphane (12.5 μM), an Nrf2-activator and positive control, for 24 hrs. Nrf-2 activation (luciferase activity) was then assessed by luminescence with a BMG labtech Omega microplate reader (FIG. 34). Data are expressed as fold induction of luciferase activity normalised to cell biomass (sulforhodamine B).

[12] = system: inflammasome; experiment: Inhibition of inflammasome activation (LPS/ATP), IL-1β ELISA in THP-1 cells; type: cell-based, human; settings: AP39 with LPS 1 μg/ml 24 hrs, then ATP 5 mM 24 hrs, FIG. 35
Experimental: Human THP-1 cells were cultured in RPMI medium and incubated with AP39 and bacterial endotoxin (lipopolysaccharide; LPS) (1 μg/ml) for 24 hrs, followed by ATP (5 mM) for an additional 24 hrs. After this time cell culture media was collected and inflammasome activation determined by measuring […] levels in the culture media by commercial ELISA (Human IL-1 beta ELISA Ready-SET-Go, eBioscience) (FIG. 35). Data are mean+/−standard deviation (n=3).

[13] = system: HMEC; experiment: Intracellular oxidative stress measurements (DCFDA assay); type: cell-based, human; settings: for 4-HNE-derived intracellular oxidant species (DCFDA assay): FIGS. 14 and 15; for time dependent increase in intracellular oxidative stress (DCFDA assay): FIG. 15
Experimental: HMEC were incubated with H2S donor compounds for 5 hrs then H2O2, […] or SIN-1 were added for 2 hrs. Intracellular oxidative stress was then assessed using dichlorofluorescein diacetate (added at a final concentration of 10 μM) and fluorescence detected using a Gemini M2e microplate reader at 37° C. (excitation wavelength, 488 nm, emission wavelength 525 nm). The method was performed in accordance with the method described by M. Whiteman et al (Meths. Mol. Biol., 2008, 476, 29-50).

[14] = system: HMEC; experiment: Mitochondrial oxidative stress measurements (MitoSox Red); type: cell-based, human; settings: for mitochondrial superoxide formation induced by 4-HNE (MitoSOX red): 4-HNE 10 μM; for mitochondrial superoxide formation induced by H2O2 (MitoSOX red): H2O2 50 μM, FIG. 17
Experimental: HMEC were incubated with H2S donor compounds for 5 hrs then the oxidants H2O2, SIN-1 or […] added for 2 hrs. We used a mitochondria-selective oxidant probe MitoSox Red (final concentration, 5 μM) to detect mitochondria-derived oxidant species by fluorescence using a Gemini M2e microplate reader (excitation wavelength 510 nm, emission wavelength, 580 nm). The method was performed in accordance with the method described by M. Whiteman et al (Meths. Mol. Biol., 2008, 476, 29-50) and R. A. Quintanilla et al (J Biol Chem., 2008, 284, 18754-18766).

[15] = system: spontaneously hypertensive (SHR) rats; experiment: Blood pressure, heart rate and breathing rate of anaesthetised SHR rats; type: in vivo, rat
Experimental: as §2, §3

[16] = system: cancer; settings: in vitro and in vivo; cited from earlier work
[17] = 1.6 μM/kg and 2.7 μM/kg AP39 injected, FIG. 20
[18] = Wistar or SHR rats, Na2S, summary statement, dose not given

T1 sequence (O43497 whole entry): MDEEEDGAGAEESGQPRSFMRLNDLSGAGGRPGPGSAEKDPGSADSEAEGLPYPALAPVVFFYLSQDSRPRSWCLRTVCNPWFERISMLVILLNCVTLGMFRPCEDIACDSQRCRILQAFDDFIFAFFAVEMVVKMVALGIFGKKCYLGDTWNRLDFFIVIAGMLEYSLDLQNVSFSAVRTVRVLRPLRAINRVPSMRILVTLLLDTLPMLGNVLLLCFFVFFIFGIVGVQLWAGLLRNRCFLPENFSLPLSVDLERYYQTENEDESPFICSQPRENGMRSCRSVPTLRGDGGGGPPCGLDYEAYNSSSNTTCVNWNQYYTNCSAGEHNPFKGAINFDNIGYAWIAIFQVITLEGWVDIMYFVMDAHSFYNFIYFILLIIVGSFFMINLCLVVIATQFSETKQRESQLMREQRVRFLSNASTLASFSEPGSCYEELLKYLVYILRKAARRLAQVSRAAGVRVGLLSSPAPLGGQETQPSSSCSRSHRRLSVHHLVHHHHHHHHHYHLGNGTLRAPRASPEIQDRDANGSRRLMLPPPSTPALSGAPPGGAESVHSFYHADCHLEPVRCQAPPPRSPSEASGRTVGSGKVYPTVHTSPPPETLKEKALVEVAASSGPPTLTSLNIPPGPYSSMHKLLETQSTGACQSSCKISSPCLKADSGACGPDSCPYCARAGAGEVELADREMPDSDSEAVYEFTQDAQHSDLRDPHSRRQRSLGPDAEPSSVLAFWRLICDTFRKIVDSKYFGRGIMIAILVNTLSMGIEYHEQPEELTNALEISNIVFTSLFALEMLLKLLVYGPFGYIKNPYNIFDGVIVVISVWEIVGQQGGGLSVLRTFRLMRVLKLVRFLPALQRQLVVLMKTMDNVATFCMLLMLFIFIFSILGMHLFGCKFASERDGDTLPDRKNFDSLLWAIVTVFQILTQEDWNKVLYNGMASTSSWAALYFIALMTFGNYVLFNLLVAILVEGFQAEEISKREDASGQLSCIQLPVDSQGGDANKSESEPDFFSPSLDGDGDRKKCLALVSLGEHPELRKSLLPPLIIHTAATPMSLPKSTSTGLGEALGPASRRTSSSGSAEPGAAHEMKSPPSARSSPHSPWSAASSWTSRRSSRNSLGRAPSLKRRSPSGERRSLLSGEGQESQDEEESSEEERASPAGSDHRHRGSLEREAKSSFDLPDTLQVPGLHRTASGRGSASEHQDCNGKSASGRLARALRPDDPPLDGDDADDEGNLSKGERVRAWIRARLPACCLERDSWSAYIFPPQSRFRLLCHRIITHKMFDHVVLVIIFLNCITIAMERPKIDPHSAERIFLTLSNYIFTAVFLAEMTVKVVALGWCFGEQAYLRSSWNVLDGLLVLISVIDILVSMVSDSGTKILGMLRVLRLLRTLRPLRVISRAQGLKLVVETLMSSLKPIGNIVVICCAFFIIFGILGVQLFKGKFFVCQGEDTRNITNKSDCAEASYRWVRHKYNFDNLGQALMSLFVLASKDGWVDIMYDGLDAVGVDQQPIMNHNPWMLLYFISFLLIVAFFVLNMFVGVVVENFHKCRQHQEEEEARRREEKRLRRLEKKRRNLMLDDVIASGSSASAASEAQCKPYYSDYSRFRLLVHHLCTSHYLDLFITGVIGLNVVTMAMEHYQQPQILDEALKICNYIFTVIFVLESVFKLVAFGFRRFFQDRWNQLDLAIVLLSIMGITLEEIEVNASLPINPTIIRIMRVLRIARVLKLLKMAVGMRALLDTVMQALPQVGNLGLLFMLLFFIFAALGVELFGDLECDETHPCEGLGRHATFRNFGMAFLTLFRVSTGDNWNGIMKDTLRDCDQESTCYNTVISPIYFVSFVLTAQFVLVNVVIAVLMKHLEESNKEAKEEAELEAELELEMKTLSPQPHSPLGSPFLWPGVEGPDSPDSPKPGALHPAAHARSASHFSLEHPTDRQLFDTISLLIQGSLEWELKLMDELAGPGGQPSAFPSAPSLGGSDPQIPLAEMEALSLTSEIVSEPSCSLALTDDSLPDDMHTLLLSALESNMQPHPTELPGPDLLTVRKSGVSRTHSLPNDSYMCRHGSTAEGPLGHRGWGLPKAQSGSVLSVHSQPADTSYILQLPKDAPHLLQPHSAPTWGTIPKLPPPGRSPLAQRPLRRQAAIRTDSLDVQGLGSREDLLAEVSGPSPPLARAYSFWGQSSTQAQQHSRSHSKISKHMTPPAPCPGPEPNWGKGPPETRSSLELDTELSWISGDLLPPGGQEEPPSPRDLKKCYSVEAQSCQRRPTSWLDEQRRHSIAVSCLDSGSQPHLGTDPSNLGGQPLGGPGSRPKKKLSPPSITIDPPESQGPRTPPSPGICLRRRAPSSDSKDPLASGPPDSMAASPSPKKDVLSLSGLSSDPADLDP

O=C(CCCCCCCCC[P+](c1ccccc1)(c1ccccc1)c1ccccc1)Oc1ccc(-c2cc(=S)ss2)cc1.[Br-] [AP39]
Prx3 oxidation by H2O2 ([1]; 5 μM AP39 for 4 hours then 25 μM H2O2 for 1 minute, FIG. 33): reduced | levels of the over-oxidised monomeric form of Prx3 ([1]; 25 μM H2O2, increasing concentrations of AP39, FIGS. 32 and 33): reduced | oxidant-induced mitochondrial membrane potential (Δψm) collapse ([2]; AP39 100 nM): inhibition | vasodilatory effect on adrenaline-precontracted rat aorta [3]: vasodilatory effects | blood pressure [4, 17]: reduced | breathing rate [4, 17]: transiently increased | heart rate [4, 17]: reduced | blood pressure ([4]; AP39 4 μM/kg, FIG. 22): sustained blood pressure (A) and heart rate (B) lowering effects | heart rate ([4]; AP39 4 μM/kg, FIG. 22): sustained blood pressure (A) and heart rate (B) lowering effects | effectiveness relative to Na2S at influencing blood pressure, heart rate and breathing rate ([4]; rats, FIGS. 20 to 22): 10-50 times | H2O2-induced cytotoxicity [5]: inhibited | SIN-1 and 4-HNE induced cell death [5]: significantly inhibited | cell death induced by 4-HNE [5]: significantly inhibited | cell death induced by SIN-1 [5]: significantly inhibited | concentration mediating inhibition of cell death, mitochondrial dysfunction and oxidative stress [5]: 50 to 200 nM | inflammasome activity after activation by LPS/ATP (IL-1β levels) [6]: inhibited | mean open time of the channel ([7]; AP39 20 μmol/l, 0 mV, control 11 ms, FIG. 27): 33 ms | amplitude of the electrical current through the single chloride channels ([7]; AP39 20 and 40 μM, 0 mV, FIGS. 24 and 25): increased | channel open probability ([7]; FIGS. 24-28): increased | mean chloride channel open time, concentration dependence ([7]; concentration dependent manner, FIG. 28): increased | conductance of chloride channels ([7]; control channel 125 pS, FIG. 26): increased | Cl−/K+ channel permeability ratio ([7]; control ratio 9.6, FIG. 26): did not influence | channel reversal potential ([7]; with AP39, control ~−31 mV, FIG. 26): ~−31 mV | AOAA, PAG and AOAA/PAG induced cell death ([8]; AP39 100 nM): significantly inhibited | vasodilatory effect on adrenaline-precontracted mesenteric arteries [9]: vasodilatory effects | concentration of AP39 inhibiting CAv3.1 T-type calcium channels [10]: > 300 nM | Nrf2 transcription factor activation (luciferase activity) ([11]; AREc32 cells, AP39 6.25 μM pre-treatment 4 h): activates | potency at inducing Nrf2 activation compared with GYY4137 ([11]; equimolar concentrations (6.25 μM)): more potent | IL-1β levels in the cell culture media (inflammasome activation) [12]: reduced | 4-HNE-derived intracellular oxidant species (DCFDA assay) ([13]; AP39 100 nM): significantly reduced; also recorded: significantly decreased | time dependent increase in intracellular oxidative stress (DCFDA assay) ([13]; pretreatment with AP39 100 nM): reduced | mitochondrial superoxide formation induced by 4-HNE (MitoSOX red) ([14]; AP39 0.1 μM, FIGS. 16 and 18): significantly reduced | lower concentration than GYY4137 for reduction of mitochondrial superoxide ([14]; AP39 0.1 μM versus GYY4137 100 μM): 1,000 fold | mitochondrial superoxide formation induced by H2O2 (MitoSOX red) ([14]; AP39 0.1 μM): reduced | blood pressure ([15]; SHR rats, 1.5 μM/kg AP39 injected, FIG. 21): Sustained blood pressure lowering effects | heart rate ([15]; hypertensive (SHR) rats, AP39, summary statement): reducing

[Na+].[Na+].[S-2] [Na2S, reference compound]
blood pressure ([4]; 3 μM/kg Na2S injected, FIG. 20): no effect; also recorded: not observed | breathing rate ([4]; 3 μM/kg Na2S injected, FIG. 20): no effect | heart rate ([4]; 3 μM/kg Na2S injected, FIG. 20): no effect; also recorded: not observed | blood pressure [15, 18]: did not reduce blood pressure | heart rate [15, 18]: did not decrease heart rate

morpholin-4-ium 4-methoxyphenyl(morpholino) phosphinodithioate [GYY4137, reference compound]
oxidant-induced mitochondrial membrane potential (Δψm) collapse ([2]; GYY4137 100 μM): inhibition | anti-cancer effects [16]: anti-cancer effects | AOAA, PAG and AOAA/PAG induced cell death ([8]; GYY4137 100 μM): significantly inhibited | 4-HNE-derived intracellular oxidant species (DCFDA assay) ([13]; GYY4137 100 μM): significantly reduced; also recorded: significantly decreased | time dependent increase in intracellular oxidative stress (DCFDA assay) ([13]; pretreatment with GYY4137 100 μM): reduced | mitochondrial superoxide formation induced by 4-HNE (MitoSOX red) ([14]; GYY4137 100 μM, FIG. 16): reduced | mitochondrial superoxide formation induced by H2O2 (MitoSOX red) ([14]; GYY4137 100 μM): reduced
